The values below come from patent publication US9708333B2, “Fused bicyclic 1,2,4-triazine compounds as TAM inhibitors” (Incyte Corporation, priority 2015, dated 2017).

The target of assay [1] is phosphor-Axl (Homo sapiens (Human), UniProt P30530). As to the kind of experiment: TAM Enzymatic Assay (HTRF), phosphor-Axl. Particulars: 5.1 nM autophosphorylated Axl, 60 min; read-out: Phos-Axl IC50. The class given is biochemical. On the technique in general: Time-resolved FRET reads energy transfer from a long-lived donor to a nearby acceptor.
phosphor-Axl, sequence (P30530 26-894): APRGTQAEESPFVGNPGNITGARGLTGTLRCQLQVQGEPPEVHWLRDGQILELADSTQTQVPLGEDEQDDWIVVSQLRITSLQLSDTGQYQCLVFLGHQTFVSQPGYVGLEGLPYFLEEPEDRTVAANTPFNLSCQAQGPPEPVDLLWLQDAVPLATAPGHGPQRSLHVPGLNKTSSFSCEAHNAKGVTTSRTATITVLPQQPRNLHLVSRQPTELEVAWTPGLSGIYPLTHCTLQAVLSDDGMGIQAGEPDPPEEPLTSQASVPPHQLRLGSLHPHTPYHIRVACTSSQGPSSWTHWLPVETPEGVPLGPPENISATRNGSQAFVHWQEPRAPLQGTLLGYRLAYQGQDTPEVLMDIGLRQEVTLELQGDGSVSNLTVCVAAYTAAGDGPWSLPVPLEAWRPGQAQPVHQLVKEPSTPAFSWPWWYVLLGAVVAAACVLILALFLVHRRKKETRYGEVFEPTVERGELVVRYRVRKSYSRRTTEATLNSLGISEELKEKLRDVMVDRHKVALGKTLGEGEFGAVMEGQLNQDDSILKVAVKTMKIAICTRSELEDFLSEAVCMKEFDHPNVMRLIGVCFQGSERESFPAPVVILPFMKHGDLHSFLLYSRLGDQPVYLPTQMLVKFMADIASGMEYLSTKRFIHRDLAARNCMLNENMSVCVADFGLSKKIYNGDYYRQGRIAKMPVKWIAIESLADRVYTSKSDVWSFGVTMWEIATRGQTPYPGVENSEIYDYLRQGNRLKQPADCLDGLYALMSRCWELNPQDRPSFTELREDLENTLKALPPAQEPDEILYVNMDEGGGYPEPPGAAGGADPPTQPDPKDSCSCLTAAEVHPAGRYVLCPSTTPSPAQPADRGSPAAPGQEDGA
Assay [2] concerns the target c-Mer (Homo sapiens (Human), UniProt Q12866). The assay can be described thus: TAM Enzymatic Assay (HTRF), c-Mer. Format: biochemical. The following applies: 0.0625 nM c-Mer, ATP-containing substrate solution, 60 min.
For assay [3], the target named is Tyro3 (Homo sapiens (Human), UniProt Q06418). The assay can be described thus: TAM Enzymatic Assay (HTRF), Tyro3. The class given is biochemical. The following applies: 0.366 nM Tyro3, 60 min.
Tyro3, sequence (Q06418 41-890): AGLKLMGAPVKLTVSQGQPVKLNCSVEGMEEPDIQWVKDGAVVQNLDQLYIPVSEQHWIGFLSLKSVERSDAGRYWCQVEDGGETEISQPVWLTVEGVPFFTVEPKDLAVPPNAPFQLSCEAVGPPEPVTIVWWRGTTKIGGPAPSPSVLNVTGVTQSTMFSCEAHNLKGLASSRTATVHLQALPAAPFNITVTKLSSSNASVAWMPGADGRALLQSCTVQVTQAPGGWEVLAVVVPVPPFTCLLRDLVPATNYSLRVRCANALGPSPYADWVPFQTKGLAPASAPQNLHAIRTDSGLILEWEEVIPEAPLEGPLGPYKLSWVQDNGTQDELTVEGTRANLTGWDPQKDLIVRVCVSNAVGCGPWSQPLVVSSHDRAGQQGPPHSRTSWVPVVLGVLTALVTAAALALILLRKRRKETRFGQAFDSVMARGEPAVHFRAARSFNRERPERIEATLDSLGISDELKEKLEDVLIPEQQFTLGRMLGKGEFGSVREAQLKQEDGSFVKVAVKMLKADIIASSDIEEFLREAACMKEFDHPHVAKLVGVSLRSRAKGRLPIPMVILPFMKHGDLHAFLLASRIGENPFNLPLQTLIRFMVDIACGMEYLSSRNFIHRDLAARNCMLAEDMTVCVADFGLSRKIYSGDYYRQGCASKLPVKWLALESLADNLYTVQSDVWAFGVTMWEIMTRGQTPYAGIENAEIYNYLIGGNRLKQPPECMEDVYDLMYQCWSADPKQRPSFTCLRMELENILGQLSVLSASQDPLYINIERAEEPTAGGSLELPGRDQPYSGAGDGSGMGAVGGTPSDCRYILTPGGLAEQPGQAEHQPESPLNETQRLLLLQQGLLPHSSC
Protocol: The kinase assay buffer contained 50 mM HEPES, pH7.5, 10 mM MgCl2, 1 mM EGTA, 0.01% NP-40 and 2 mM DTT. 0.1 ul test compounds dissolved in DMSO were transferred from compound plates to white 384-well assay plates (Greiner [sequence] plates). […] 4 ul enzyme solution (or assay buffer for the enzyme blank) was added to the appropriate wells in each plate, and then 4 ul/well substrate solution was added to initiate the reaction. The plate was protected from light and incubated at room temperature for 60 min. […] The plate was incubated for 1 h at room temperature, and HTRF (homogenous time resolved fluorescence) signal was measured on a PHERAstar FS plate reader (BMG labtech). Percentage of inhibition was calculated for each concentration and IC50 value was generated from curve fitting with GraphPad Prism software.
Assay [4] has as its target PI3Kδ (Homo sapiens (Human), UniProt O00329). The following applies: cited from earlier work.

PI3Kδ, sequence (O00329 whole entry, species assumed): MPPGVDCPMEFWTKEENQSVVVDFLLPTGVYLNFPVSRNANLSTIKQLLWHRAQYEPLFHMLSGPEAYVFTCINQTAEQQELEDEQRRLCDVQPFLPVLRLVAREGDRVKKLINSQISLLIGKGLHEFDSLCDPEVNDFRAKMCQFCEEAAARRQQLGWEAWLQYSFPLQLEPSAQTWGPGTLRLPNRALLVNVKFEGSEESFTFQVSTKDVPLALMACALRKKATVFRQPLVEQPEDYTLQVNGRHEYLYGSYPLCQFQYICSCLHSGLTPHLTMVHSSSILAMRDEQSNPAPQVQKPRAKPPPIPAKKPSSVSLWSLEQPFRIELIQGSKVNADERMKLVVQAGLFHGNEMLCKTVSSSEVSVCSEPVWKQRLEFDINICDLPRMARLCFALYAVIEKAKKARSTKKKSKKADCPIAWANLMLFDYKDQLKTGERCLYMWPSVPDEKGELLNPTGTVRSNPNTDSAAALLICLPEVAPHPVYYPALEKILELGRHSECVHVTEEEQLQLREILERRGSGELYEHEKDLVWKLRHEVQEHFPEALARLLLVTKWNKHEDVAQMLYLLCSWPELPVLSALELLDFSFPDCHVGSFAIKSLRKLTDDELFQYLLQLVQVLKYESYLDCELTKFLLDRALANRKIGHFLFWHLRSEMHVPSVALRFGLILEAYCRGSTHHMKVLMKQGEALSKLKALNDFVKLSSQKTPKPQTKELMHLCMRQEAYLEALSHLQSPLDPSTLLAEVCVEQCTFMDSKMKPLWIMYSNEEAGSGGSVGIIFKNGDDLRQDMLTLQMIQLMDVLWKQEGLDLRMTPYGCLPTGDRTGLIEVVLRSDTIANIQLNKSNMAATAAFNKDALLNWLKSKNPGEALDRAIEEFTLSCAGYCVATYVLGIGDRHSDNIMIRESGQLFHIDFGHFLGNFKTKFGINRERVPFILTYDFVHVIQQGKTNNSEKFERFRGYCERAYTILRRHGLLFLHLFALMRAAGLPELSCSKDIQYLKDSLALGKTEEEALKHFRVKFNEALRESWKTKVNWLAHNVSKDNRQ
PI3Kδ, sequence (P27986 whole entry partner, species assumed): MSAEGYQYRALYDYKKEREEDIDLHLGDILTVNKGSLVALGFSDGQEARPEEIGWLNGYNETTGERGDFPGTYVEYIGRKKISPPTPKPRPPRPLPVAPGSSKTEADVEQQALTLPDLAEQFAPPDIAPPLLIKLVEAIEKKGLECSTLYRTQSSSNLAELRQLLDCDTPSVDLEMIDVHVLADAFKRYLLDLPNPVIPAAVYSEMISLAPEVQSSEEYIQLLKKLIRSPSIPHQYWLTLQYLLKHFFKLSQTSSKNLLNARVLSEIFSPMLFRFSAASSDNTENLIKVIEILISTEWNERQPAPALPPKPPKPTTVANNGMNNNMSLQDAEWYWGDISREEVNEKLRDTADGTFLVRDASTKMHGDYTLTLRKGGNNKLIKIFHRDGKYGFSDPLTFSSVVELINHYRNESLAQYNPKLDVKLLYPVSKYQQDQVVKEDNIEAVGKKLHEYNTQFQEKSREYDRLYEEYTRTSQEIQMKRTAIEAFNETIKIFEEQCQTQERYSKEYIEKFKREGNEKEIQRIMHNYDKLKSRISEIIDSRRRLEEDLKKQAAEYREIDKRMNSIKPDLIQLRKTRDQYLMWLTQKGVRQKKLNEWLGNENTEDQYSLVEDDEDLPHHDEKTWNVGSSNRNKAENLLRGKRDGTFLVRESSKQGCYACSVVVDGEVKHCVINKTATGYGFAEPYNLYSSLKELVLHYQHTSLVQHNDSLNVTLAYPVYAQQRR
c-Mer, sequence (Q12866 21-999): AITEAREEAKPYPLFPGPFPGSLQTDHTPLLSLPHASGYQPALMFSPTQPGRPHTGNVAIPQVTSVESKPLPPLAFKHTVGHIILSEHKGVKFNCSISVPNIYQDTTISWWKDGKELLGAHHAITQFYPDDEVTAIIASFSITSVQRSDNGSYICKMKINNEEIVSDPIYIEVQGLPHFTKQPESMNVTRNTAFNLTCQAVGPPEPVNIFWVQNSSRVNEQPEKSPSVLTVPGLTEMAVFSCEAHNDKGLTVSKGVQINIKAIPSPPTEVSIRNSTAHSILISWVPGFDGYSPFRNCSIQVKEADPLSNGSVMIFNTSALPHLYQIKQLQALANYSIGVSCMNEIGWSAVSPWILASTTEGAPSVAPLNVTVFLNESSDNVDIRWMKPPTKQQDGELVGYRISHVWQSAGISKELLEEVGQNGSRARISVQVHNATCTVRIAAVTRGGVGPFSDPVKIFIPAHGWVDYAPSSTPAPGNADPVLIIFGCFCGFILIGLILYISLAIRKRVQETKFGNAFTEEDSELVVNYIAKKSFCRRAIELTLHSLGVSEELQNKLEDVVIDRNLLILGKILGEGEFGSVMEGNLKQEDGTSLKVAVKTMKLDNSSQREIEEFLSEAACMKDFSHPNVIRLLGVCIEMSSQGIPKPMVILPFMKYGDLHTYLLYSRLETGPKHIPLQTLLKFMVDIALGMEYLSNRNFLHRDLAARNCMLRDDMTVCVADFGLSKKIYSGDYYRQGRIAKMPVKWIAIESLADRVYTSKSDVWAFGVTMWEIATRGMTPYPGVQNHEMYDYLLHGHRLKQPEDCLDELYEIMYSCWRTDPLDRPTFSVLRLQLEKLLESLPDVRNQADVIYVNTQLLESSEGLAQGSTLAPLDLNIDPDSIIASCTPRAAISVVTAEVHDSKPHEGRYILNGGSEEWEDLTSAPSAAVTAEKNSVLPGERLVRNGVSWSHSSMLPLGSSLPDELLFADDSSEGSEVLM

One may read the IC50 as the concentration that inhibits the measured activity by half. As for `CCCCNc1ncc2c(-c3ccc(N4CCOCC4)c(F)c3)nc(C3CCC(O)CC3)n2n1` (single isomer, unassigned) [7 (2nd peak), 4-[2-(Butylamino)-5-(3-fluoro-4-morpholin-4-ylphenyl)imidazo[5,1-f][1,2,4]triazin-7-yl]cyclohexanol], in assay [1], the IC50 is greater than 1000 nM.
As for `CCCCNc1ncc2c(-c3ccc(CN4CCN(C)CC4)cc3)nc([C@H]3CC[C@H](O)CC3)n2n1` [1 (1st peak, trans-), trans-4-(2-(Butylamino)-5-{4-[(4-methylpiperazin-1-yl)methyl]phenyl}imidazo[5,1-f][1,2,4]triazin-7-yl)cyclohexanol], the half-maximal inhibitory concentration (IC50) is no more than 100 nM in assay [1], no more than 100 nM in assay [2] and 100 to 500 nM in assay [3].
Turning to `CCOc1c(C(C)n2nc(C)c3c(N)ncnc32)cc(Cl)c(F)c1C1CNC(=O)C1` (single isomer, unassigned) [Compound 32c, 4-{3-[1-(4-amino-3-methyl-1H-pyrazolo[3,4-d]pyrimidin-1-yl)ethyl]-5-chloro-2-ethoxy-6-fluorophenyl}pyrrolidin-2-one], the IC50 in assay [4] was less than 50 nM.
For the molecule `CCOc1c(C(C)n2nc(C)c3c(N)ncnc32)cc(Cl)c(F)c1C1CNC(=O)C1` (single isomer, unassigned) [Compound 32b, 4-{3-[1-(4-amino-3-methyl-1H-pyrazolo[3,4-d]pyrimidin-1-yl)ethyl]-5-chloro-2-ethoxy-6-fluorophenyl}pyrrolidin-2-one], the IC50 in assay [4] is less than 50 nM.
As to `CCCCNc1ncc2c(-c3ccc(CN4CCOCC4)cc3)nc([C@H]3CC[C@@H](O)CC3)n2n1` [2 (2nd peak, cis-), cis-4-{2-(Butylamino)-5-[4-(morpholin-4-ylmethyl)phenyl]imidazo[5,1-f][1,2,4]triazin-7-yl}cyclohexanol], the IC50 in assay [1] is 100 to 500 nM; in assay [2] it was no more than 100 nM; in assay [3], 100 to 500 nM.
Consider `COc1c(C(C)n2nc(C)c3c(N)ncnc32)cc(Cl)c(C#N)c1C1CN(C[C@H](C)O)C1` (stereo partly drawn) [Compound 29, 4-[1-(4-amino-3-methyl-1H-pyrazolo[3,4-d]pyrimidin-1-yl)ethyl]-6-chloro-2-{1-[(2S)-2-hydroxypropyl]azetidin-3-yl}-3-methoxybenzonitrile], for which the IC50 in assay [4] was less than 50 nM.
For the molecule `CCCCNc1ncc2c(-c3ccc(N4CCOCC4)c(F)c3)nc(C3CCC(O)CC3)n2n1` (single isomer, unassigned) [7 (1st peak), 4-[2-(Butylamino)-5-(3-fluoro-4-morpholin-4-ylphenyl)imidazo[5,1-f][1,2,4]triazin-7-yl]cyclohexanol], the values for the IC50 in assay [1] and in assay [3] were 100 to 500 nM and 500 to 1000 nM, respectively.
